Measurements as given in the NIST ThermoML archive (doi:10.1021/acs.jced.6b00455).

Test: mn = molality of the nth substance listed, in mol/kg
Conditions: 101 kPa, Liquid, Alternating current cell with electrodes

C[N+](C)(C)CCO.O=C([O-])C(F)(F)C(F)(F)C(F)(F)C(F)(F)C(F)(F)C(F)(F)C(F)(F)F [(2-hydroxyethyl)trimethylammonium perfluorooctanoate] + O
Conditions | electrical conductivity [S/m]
293.15 K, m1 = 7.6e-05 | 0.0005
293.15 K, m1 = 0.000243 | 0.0015
293.15 K, m1 = 0.000338 | 0.0021
293.15 K, m1 = 0.000489 | 0.0031
293.15 K, m1 = 0.000626 | 0.0039
293.15 K, m1 = 0.000747 | 0.0046
293.15 K, m1 = 0.000847 | 0.0053
293.15 K, m1 = 0.000968 | 0.0061
293.15 K, m1 = 0.001108 | 0.007
293.15 K, m1 = 0.001301 | 0.008
293.15 K, m1 = 0.001463 | 0.0091
293.15 K, m1 = 0.001591 | 0.0098
293.15 K, m1 = 0.001689 | 0.0106
293.15 K, m1 = 0.00186 | 0.0114
293.15 K, m1 = 0.001996 | 0.0123
293.15 K, m1 = 0.002117 | 0.0129
293.15 K, m1 = 0.00224 | 0.0138
293.15 K, m1 = 0.002376 | 0.0145
293.15 K, m1 = 0.002497 | 0.0153
293.15 K, m1 = 0.00262 | 0.016
293.15 K, m1 = 0.002737 | 0.0167
293.15 K, m1 = 0.002945 | 0.018
293.15 K, m1 = 0.00309 | 0.0188
293.15 K, m1 = 0.003212 | 0.0196
293.15 K, m1 = 0.003363 | 0.0202
293.15 K, m1 = 0.003476 | 0.0208
293.15 K, m1 = 0.003596 | 0.0216
293.15 K, m1 = 0.003714 | 0.0222
298.15 K, m1 = 6.2e-05 | 0.0004
298.15 K, m1 = 0.000138 | 0.0009
298.15 K, m1 = 0.00019 | 0.0013
298.15 K, m1 = 0.000258 | 0.0018
298.15 K, m1 = 0.000317 | 0.0022
298.15 K, m1 = 0.000375 | 0.0026
298.15 K, m1 = 0.000432 | 0.003
298.15 K, m1 = 0.000488 | 0.0034
298.15 K, m1 = 0.000547 | 0.0038
298.15 K, m1 = 0.000619 | 0.0044
298.15 K, m1 = 0.000704 | 0.0049
298.15 K, m1 = 0.00077 | 0.0054
298.15 K, m1 = 0.000828 | 0.006
298.15 K, m1 = 0.00091 | 0.0066
298.15 K, m1 = 0.000999 | 0.0072
298.15 K, m1 = 0.001085 | 0.0078
298.15 K, m1 = 0.001174 | 0.0084
298.15 K, m1 = 0.001268 | 0.009
298.15 K, m1 = 0.001353 | 0.0096
298.15 K, m1 = 0.001452 | 0.0102
298.15 K, m1 = 0.001544 | 0.0109
298.15 K, m1 = 0.001654 | 0.0115
298.15 K, m1 = 0.001755 | 0.0119
298.15 K, m1 = 0.00185 | 0.0125
298.15 K, m1 = 0.001933 | 0.013
298.15 K, m1 = 0.002054 | 0.0138
298.15 K, m1 = 0.002177 | 0.0146
298.15 K, m1 = 0.002284 | 0.0152
298.15 K, m1 = 0.00241 | 0.016
298.15 K, m1 = 0.002525 | 0.0167
298.15 K, m1 = 0.002643 | 0.0174
298.15 K, m1 = 0.002738 | 0.018
298.15 K, m1 = 0.002963 | 0.0194
298.15 K, m1 = 0.003158 | 0.0205
298.15 K, m1 = 0.003285 | 0.0213
298.15 K, m1 = 0.003418 | 0.0221
298.15 K, m1 = 0.003542 | 0.0228
298.15 K, m1 = 0.00364 | 0.0234
298.15 K, m1 = 0.003768 | 0.0242
298.15 K, m1 = 0.003952 | 0.0253
298.15 K, m1 = 0.004493 | 0.0287
298.15 K, m1 = 0.005611 | 0.0355
298.15 K, m1 = 0.006271 | 0.0391
298.15 K, m1 = 0.006873 | 0.0424
298.15 K, m1 = 0.007507 | 0.0463
303.15 K, m1 = 6.9e-05 | 0.0006
303.15 K, m1 = 0.000173 | 0.0013
303.15 K, m1 = 0.000265 | 0.002
303.15 K, m1 = 0.000396 | 0.0031
303.15 K, m1 = 0.000504 | 0.0039
303.15 K, m1 = 0.000614 | 0.0048
303.15 K, m1 = 0.000711 | 0.0055
303.15 K, m1 = 0.000794 | 0.0061
303.15 K, m1 = 0.000992 | 0.0077
303.15 K, m1 = 0.001091 | 0.0084
303.15 K, m1 = 0.001177 | 0.0091
303.15 K, m1 = 0.00129 | 0.0099
303.15 K, m1 = 0.001381 | 0.0105
303.15 K, m1 = 0.001497 | 0.0113
303.15 K, m1 = 0.001589 | 0.012
303.15 K, m1 = 0.001698 | 0.0128
303.15 K, m1 = 0.002339 | 0.0176
303.15 K, m1 = 0.002615 | 0.0196
303.15 K, m1 = 0.002737 | 0.0204
303.15 K, m1 = 0.002834 | 0.021
303.15 K, m1 = 0.002921 | 0.0216
303.15 K, m1 = 0.003011 | 0.0222
303.15 K, m1 = 0.003103 | 0.0229
303.15 K, m1 = 0.003204 | 0.0237
303.15 K, m1 = 0.003323 | 0.0244
303.15 K, m1 = 0.003408 | 0.025
303.15 K, m1 = 0.003487 | 0.0256
303.15 K, m1 = 0.003599 | 0.0264
303.15 K, m1 = 0.003701 | 0.0271
303.15 K, m1 = 0.003815 | 0.0279
303.15 K, m1 = 0.003911 | 0.0285
303.15 K, m1 = 0.004027 | 0.0293
303.15 K, m1 = 0.004122 | 0.03
303.15 K, m1 = 0.004288 | 0.0311
303.15 K, m1 = 0.004393 | 0.0318
303.15 K, m1 = 0.004492 | 0.0325
303.15 K, m1 = 0.004585 | 0.0331
303.15 K, m1 = 0.004679 | 0.0337
303.15 K, m1 = 0.004785 | 0.0345
308.15 K, m1 = 6.9e-05 | 0.0006
308.15 K, m1 = 0.000131 | 0.0012
308.15 K, m1 = 0.000188 | 0.0016
308.15 K, m1 = 0.000233 | 0.002
308.15 K, m1 = 0.000278 | 0.0024
308.15 K, m1 = 0.000329 | 0.0029
308.15 K, m1 = 0.000372 | 0.0032
308.15 K, m1 = 0.000407 | 0.0035
308.15 K, m1 = 0.000451 | 0.0039
308.15 K, m1 = 0.000486 | 0.0043
308.15 K, m1 = 0.000545 | 0.0048
308.15 K, m1 = 0.000576 | 0.0051
308.15 K, m1 = 0.000628 | 0.0055
308.15 K, m1 = 0.000669 | 0.0059
308.15 K, m1 = 0.000706 | 0.0062
308.15 K, m1 = 0.000758 | 0.0067
308.15 K, m1 = 0.000796 | 0.007
308.15 K, m1 = 0.000831 | 0.0073
308.15 K, m1 = 0.000864 | 0.0076
308.15 K, m1 = 0.0009 | 0.0079
308.15 K, m1 = 0.000934 | 0.0082
308.15 K, m1 = 0.000981 | 0.0087
308.15 K, m1 = 0.001026 | 0.0091
308.15 K, m1 = 0.00106 | 0.0094
308.15 K, m1 = 0.001098 | 0.0097
308.15 K, m1 = 0.001138 | 0.0101
308.15 K, m1 = 0.001211 | 0.0107
308.15 K, m1 = 0.001265 | 0.0112
308.15 K, m1 = 0.001299 | 0.0114
308.15 K, m1 = 0.001362 | 0.012
308.15 K, m1 = 0.001397 | 0.0123
308.15 K, m1 = 0.001445 | 0.0127
308.15 K, m1 = 0.0015 | 0.0132
308.15 K, m1 = 0.001539 | 0.0136
308.15 K, m1 = 0.001701 | 0.015
308.15 K, m1 = 0.001808 | 0.0159
308.15 K, m1 = 0.001958 | 0.0173
308.15 K, m1 = 0.002148 | 0.0189
308.15 K, m1 = 0.002371 | 0.0209
308.15 K, m1 = 0.0025 | 0.022
308.15 K, m1 = 0.002602 | 0.0229
308.15 K, m1 = 0.002723 | 0.0239
308.15 K, m1 = 0.00288 | 0.0253
308.15 K, m1 = 0.003015 | 0.0265
308.15 K, m1 = 0.003126 | 0.0274
308.15 K, m1 = 0.00328 | 0.0287
308.15 K, m1 = 0.003401 | 0.0297
308.15 K, m1 = 0.003526 | 0.0308
308.15 K, m1 = 0.003657 | 0.0319
308.15 K, m1 = 0.003764 | 0.0328
308.15 K, m1 = 0.003883 | 0.0337
308.15 K, m1 = 0.003991 | 0.0346
308.15 K, m1 = 0.004106 | 0.0356
308.15 K, m1 = 0.00422 | 0.0365
308.15 K, m1 = 0.004341 | 0.0375
308.15 K, m1 = 0.004478 | 0.0386
308.15 K, m1 = 0.004597 | 0.0396
308.15 K, m1 = 0.004723 | 0.0405
313.15 K, m1 = 0.000143 | 0.0013
313.15 K, m1 = 0.000274 | 0.0026
313.15 K, m1 = 0.000394 | 0.0038
313.15 K, m1 = 0.000543 | 0.005
313.15 K, m1 = 0.00064 | 0.006
313.15 K, m1 = 0.000773 | 0.0073
313.15 K, m1 = 0.000904 | 0.0087
313.15 K, m1 = 0.001044 | 0.0101
313.15 K, m1 = 0.001221 | 0.012
313.15 K, m1 = 0.001372 | 0.0134
313.15 K, m1 = 0.001554 | 0.0149
313.15 K, m1 = 0.001697 | 0.0164
313.15 K, m1 = 0.001835 | 0.0178
313.15 K, m1 = 0.002088 | 0.02
313.15 K, m1 = 0.002327 | 0.0222
313.15 K, m1 = 0.002528 | 0.0242
313.15 K, m1 = 0.002879 | 0.0274
313.15 K, m1 = 0.003226 | 0.0306
313.15 K, m1 = 0.003438 | 0.0318
313.15 K, m1 = 0.003602 | 0.0333
313.15 K, m1 = 0.003774 | 0.035
313.15 K, m1 = 0.004014 | 0.037
313.15 K, m1 = 0.00417 | 0.0382
313.15 K, m1 = 0.004352 | 0.0397
313.15 K, m1 = 0.004528 | 0.0415
313.15 K, m1 = 0.004708 | 0.043
313.15 K, m1 = 0.004876 | 0.0446
313.15 K, m1 = 0.005072 | 0.0463
313.15 K, m1 = 0.005237 | 0.0477
